Source: ChEMBL document CHEMBL4699610, “Synthesis and biological evaluation of anti-tubercular activity of Schiff bases of 2-Amino thiazoles” (2020)
Values after ≈ are worked out from the molar mass of the structure shown.

Test system: Mycobacterium tuberculosis
Experiment: Antitubercular activity against Mycobacterium tuberculosis H37Rv assessed as bacterial growth inhibition by MABA relative to control
Assay type: functional

Structure (SMILES) | MIC
COc1cc(/C=C\Nc2nc(-c3ccc(N4C(=O)c5ccccc5C4=O)cc3)cs2)cc(OC)c1OC | 6.25 µg/mL (≈ 12.2 µM)
O=C1CCC(=O)N1c1ccc(-c2csc(N/C=C\c3ccccc3[N+](=O)[O-])n2)cc1 | 100 µg/mL (≈ 238 µM)
O=C(Nc1ccc(-c2csc(N/C=C\c3cccc(Cl)c3)n2)cc1)c1ccccc1 | 25 µg/mL (≈ 57.9 µM)
CC[C@@H](CO)NCCN[C@@H](CC)CO [ETHAMBUTOL] | 3.2 µg/mL (≈ 15.7 µM)
COc1cc(/C=C\Nc2nc(-c3ccc(NC(=O)c4ccccc4)cc3)cs2)cc(OC)c1OC | 25 µg/mL (≈ 51.3 µM)
O=C1CCC(=O)N1c1ccc(-c2csc(N/C=C\c3ccc(F)cc3)n2)cc1 | 12.5 µg/mL (≈ 31.8 µM)
NC(=O)c1cnccn1 [PYRAZINAMIDE] | 3.12 µg/mL (≈ 25.4 µM)
O=C(Nc1ccc(-c2csc(N/C=C\c3ccc(O)cc3)n2)cc1)c1ccccc1 | 6.25 µg/mL (≈ 15.1 µM)
O=C(Nc1ccc(-c2csc(N/C=C\c3ccc(F)cc3)n2)cc1)c1ccccc1 | 12.5 µg/mL (≈ 30.1 µM)
CO[C@H]1/C=C/O[C@@]2(C)Oc3c(C)c(O)c4c(O)c(c(/C=N/N5CCN(C)CC5)c(O)c4c3C2=O)NC(=O)/C(C)=C\C=C\[C@H](C)[C@H](O)[C@@H](C)[C@@H](O)[C@@H](C)[C@H](OC(C)=O)[C@@H]1C [RIFAMPIN] | 0.8 µg/mL (≈ 0.972 µM)
O=C(Nc1ccc(-c2csc(N/C=C\c3ccccc3[N+](=O)[O-])n2)cc1)c1ccccc1 | 6.25 µg/mL (≈ 14.1 µM)
NNC(=O)c1ccncc1 [ISONIAZID] | 1.6 µg/mL (≈ 11.7 µM)
O=C1c2ccccc2C(=O)N1c1ccc(-c2csc(N/C=C\c3ccccc3[N+](=O)[O-])n2)cc1 | 25 µg/mL (≈ 53.4 µM)
Nc1nc(-c2ccc(NC(=O)c3ccccc3)cc2)cs1 | 50 µg/mL (≈ 169 µM)
Nc1nc(-c2ccc(N3C(=O)c4ccccc4C3=O)cc2)cs1 | 12.5 µg/mL (≈ 38.9 µM)
COc1cc(/C=C\Nc2nc(-c3ccc(N4C(=O)CCC4=O)cc3)cs2)cc(OC)c1OC | 25 µg/mL (≈ 53.7 µM)
O=C(O)c1cn(C2CC2)c2cc(N3CCNCC3)c(F)cc2c1=O [CIPROFLOXACIN] | 3.12 µg/mL (≈ 9.43 µM)
O=C1CCC(=O)N1c1ccc(-c2csc(N/C=C\c3cccc(Cl)c3)n2)cc1 | 25 µg/mL (≈ 61 µM)
O=C1CCC(=O)N1c1ccc(-c2csc(N/C=C\c3ccc(O)cc3)n2)cc1 | 100 µg/mL (≈ 255 µM)
CN[C@@H]1[C@H](O[C@H]2[C@H](O[C@H]3[C@H](O)[C@@H](O)[C@H](N=C(N)N)[C@@H](O)[C@@H]3N=C(N)N)O[C@@H](C)[C@]2(O)C=O)O[C@@H](CO)[C@H](O)[C@H]1O [STREPTOMYCIN] | 0.8 µg/mL (≈ 1.38 µM)
Nc1nc(-c2ccc(N3C(=O)CCC3=O)cc2)cs1 | 6.25 µg/mL (≈ 22.9 µM)
